Where two headings read alike, the source gives them in different places.
Key:
Ba/F3 Del19/C797S cells = assay: Antiproliferative activity assay (CellTiter-Glo, 72 h); format: cell-based; conditions: for IC50: Mus musculus
Experimental: (§1) After incubating the cells in a 5% CO2 incubator at 37° C. for 72 hours, 25 μL of CellTiter-Glo reagent (CTG) was added to each well and the plate was gently shaken and incubated in a 5% CO2 incubator at 37° C. (protected from light) for 30 minutes. […] was measured using the Envision reader.

Ba/F3 L858R/C797S cells = assay: as above; format: cell-based; conditions: for IC50: Mus musculus
Experimental: as §1

EGFR C797S = EGFR C797S (Homo sapiens, UniProt P00533, C797S); assay: Kinase inhibition assay (HTRF)
Experimental: (§2) At room temperature, 5 μL each of kinase, peptide substrate (TK-substrate-biotin), and ATP were added to the plate and incubated at room temperature for 40 minutes.

[1] = biological target: EGFR L858R/C797S dual mutations (Homo sapiens, UniProt P00533, C797S/L858R); assay: Kinase inhibition assay (HTRF)
Experimental: as §2

[2] = biological target: EGFR Del19/C797S dual mutations (Homo sapiens, UniProt P00533, C797S, form not given); assay: Kinase inhibition assay (HTRF)
EGFR L792H = EGFR L792H (Homo sapiens, UniProt P00533, L792H); assay: Kinase inhibition assay (HTRF)
Experimental: as §2

SMILES: C=CC(=O)Nc1cc(Nc2nccc(-c3cn(C)c4ccccc34)n2)c(OC)cc1N(C)CCN(C)C [Osimertinib, osimertinib, reference compound]
- IC50 (Ba/F3 Del19/C797S cells; BaF3, 72 h): 1320 nM
- IC50 (Ba/F3 L858R/C797S cells; BaF3, 72 h): 1260 nM

SMILES: C#Cc1cccc(Nc2ncnc3cc(OC)c(O[C@@H]4CCN(C)CC4(F)F)cc23)c1F [Quinazoline derivative (I), (R)-6-[(3,3-difluoro-1-methylpiperidin-4-yl)oxy]-N-(3-ethynyl-2-fluorophenyl)-7-methoxyquinazolin-4-amine]
- Relative bioactivity, times that of osimertinib (Ba/F3 Del19/C797S cells; Ba/F3 Del19/C797S): ~4900 times
- Relative potency % (Osimertinib IC50/Quinazoline derivative (I) IC50×100%) (Ba/F3 Del19/C797S cells; Ba/F3 Del19/C797S): 490370.4%
- IC50 (Ba/F3 Del19/C797S cells; BaF3, Ba/F3 Del19/C797S, 72 hours, CellTiter-Glo, read-out: IC50): 0.27 nM
- Relative bioactivity, times that of osimertinib (Ba/F3 L858R/C797S cells; Ba/F3 L858R/C797S): approximately 490 times
- Relative potency % (Osimertinib IC50/Quinazoline derivative (I) IC50×100%) (Ba/F3 L858R/C797S cells; Ba/F3 L858R/C797S): 49004.3%
- IC50 (Ba/F3 L858R/C797S cells; BaF3, Ba/F3 L858R/C797S, 72 hours, CellTiter-Glo, read-out: IC50): 2.56 nM
- IC50 (EGFR C797S): 0.95 nM
- Relative bioactivity, times that of osimertinib (EGFR C797S; EGFR C797S kinase): > 1052 times
- Relative potency % (EGFR C797S; EGFR C797S kinase): >105263%
- IC50 [1]: 0.037 nM
- Relative bioactivity, times that of osimertinib ([1]; EGFR L858R/C797S kinase): ~93118 times
- Relative potency % ([1]; EGFR L858R/C797S kinase): 9311751.9%
- IC50 [2]: 0.131 nM
- Relative bioactivity, times that of osimertinib [2]: ~498 times
- Relative potency % [2]: 49809.0%
- IC50 (EGFR L792H): 3.42 nM
- Relative bioactivity, times that of osimertinib (EGFR L792H; EGFR L792H kinase): ~49 times
- Relative potency % (EGFR L792H; EGFR L792H kinase): 4918%
